In patent US8003847B2, “Non-human mutant mammals deficient in Sigma receptors and their applications” (Laboratorios Del Dr. Esteve, S.A., priority 2002, dated 2011):

Columns and labels:
[1] = biological target: type-1 Sigma receptors (Homo sapiens, UniProt Q99720); settings: type-1 Sigma receptor, result in words; cited from earlier work
[2] = biological target: type-2 Sigma receptors (Homo sapiens, UniProt Q5BJF2); settings: type-2 Sigma receptor, result in words; cited from earlier work
[3] = test system: mouse Sigma-1 receptor; assay: specific binding test to the [3H]-pentazocine ligand, brain membrane fraction; settings: brain membranes of homozygous mutant (-/-) mice; 37° C., 130-170 minutes
Method: Fourthly, the activity (function) of the mouse Sigma-1 receptor was evaluated by a specific binding test to the [^3H]-pentazocine ligand. Briefly, the brains of mutant (−/−), heterozygous (+/−) and wild (+/+) mice were homogenised and the homogenisations ere centrifuged several times at different speeds to obtain the membrane fraction. Then samples of the membrane fraction obtained were incubated with the [^3H]-pentazocine radioligand in optimal binding conditions for this receptor (37° C., for 130-170 minutes), filtrating the samples, washing them and reading the radioactivity count present in the filtrate (see DeHaven-Hudkins D. L., Fleissner L. C., Ford-Rice, F. Y. (1992) Characterization of the binding of [3H]-Pentazocine to sigma recognition sites in guinea pigs brain. European Journal of Pharmacology 227:371-378, hereinafter DeHaven-Hudkins).

[4] = biological target: Sigma-1 receptor (Mus musculus, UniProt O55242); settings: in vivo
Chain of Sigma-1 receptor (O55242 whole entry): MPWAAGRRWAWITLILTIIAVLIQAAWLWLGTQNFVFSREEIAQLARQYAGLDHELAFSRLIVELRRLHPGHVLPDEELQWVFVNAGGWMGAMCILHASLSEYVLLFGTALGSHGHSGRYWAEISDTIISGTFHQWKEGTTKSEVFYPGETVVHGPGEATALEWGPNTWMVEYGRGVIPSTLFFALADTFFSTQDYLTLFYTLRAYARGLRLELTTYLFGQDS
Method: Fifthly, the function of the Sigma-1 receptor was evaluated according to known behavioral paradigms and protocols.

Chain of type-1 Sigma receptors (Q99720 whole entry): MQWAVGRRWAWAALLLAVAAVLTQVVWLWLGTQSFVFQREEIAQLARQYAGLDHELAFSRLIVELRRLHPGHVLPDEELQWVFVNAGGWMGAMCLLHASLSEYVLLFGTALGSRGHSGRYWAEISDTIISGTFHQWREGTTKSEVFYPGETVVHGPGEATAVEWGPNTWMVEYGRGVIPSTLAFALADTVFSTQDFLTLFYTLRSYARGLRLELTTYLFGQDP
Chain of type-2 Sigma receptors (Q5BJF2 whole entry): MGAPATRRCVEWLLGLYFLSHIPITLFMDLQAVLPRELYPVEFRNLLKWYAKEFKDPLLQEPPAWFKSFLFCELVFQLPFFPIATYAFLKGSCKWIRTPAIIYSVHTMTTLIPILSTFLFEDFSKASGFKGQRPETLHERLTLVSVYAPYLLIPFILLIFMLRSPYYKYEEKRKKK

For `CC(C)=CCN1CCC2(C)c3cc(O)ccc3CC1C2C` (single isomer, unassigned; (+)) [(+)-pentazocine], the affinity [1] is given as “high affinity” and the affinity [2] is given as “low affinity”.
With `[3H]c1cc2c(c([3H])c1O)[C@@]1(C)CCN(CC=C(C)C)[C@@H](C2)[C@H]1C` [[^3H]-pentazocine] the “specific binding of radioligand (activity/function of receptor)” value [3] was “lack of activity (function)”.
In the case of `O=C(CCCN1CCC(O)(c2ccc(Cl)cc2)CC1)c1ccc(F)cc1` [haloperidol], the affinity [2] is listed as “high to moderate affinity”.
For `C[C@@H]1CN(CCCn2c3ccccc3c3ccccc32)C[C@H](C)N1` [rimcazole], the affinity [1] is listed as “high affinity”.
In the case of (+)-SKF10047, the affinity [2] is given as “low affinity”.
In the case of N-allylnormetazocine [SKF-10047], the “hyperactivity (hypermotility) response” value [4] is listed as “Statistically significant differences have only been observed with wild mice” and the affinity [1] is listed as “high affinity”.
